Consider eleven compounds from patent US10144742B2 (Millennium Pharmaceuticals, Inc., priority 2014, dated 2018).

Structures are written as SMILES. Like-named read-outs stand apart in the source and are kept apart here.

One test addresses hNAMPT protein (Homo sapiens (Human), UniProt P43490). Description: NAMPT enzyme assay (TR-FRET/HTRF, BodiPY ligand, anti 6His-Tb). In kind it is binding. Conditions: for IC50: NAMPT IC50 range class, read-out: IC50; for inhibition at 1 µM: read-out: Percent Inhibition. The essentials:
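TR-FRET binding assay in which His-tagged human NAMPT with anti-6His-Tb is displaced by compound from a BodiPY ligand, incubated 1 h at rt in the dark. Excitation was at 320 nm, with the 520/486 nm emission ratio read. IC50 was fitted from inhibition relative to DMSO controls.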
(Time-resolved FRET reads energy transfer from a long-lived donor to a nearby acceptor.)

The next test deals with PC3 cells. Description: PC3 growth inhibition (Cell-titer glo, 72 hours). Type of test: cell-based. Conditions: Homo sapiens, PC-3, PC3 cells, 72 hours, Cell-titer glo, read-out: Percent Inhibition (PC3 growth inhibition); for inhibition at 1 µM: compound concentration 1 μM; for inhibition at 1.667 µM: compound concentration 1.667 μM. Summed up:
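PC3 cells in RPMI1640 seeded overnight at 37 °C, 5% CO2, then exposed to compound diluted in AIM serum-free medium for 72 h. Viability by CellTiter-Glo luminescence vs DMSO controls; single-concentration % remaining viability (1 μM or 1.667 μM), or GI50/LD50 from curves.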

Chain of hNAMPT protein (P43490 whole entry): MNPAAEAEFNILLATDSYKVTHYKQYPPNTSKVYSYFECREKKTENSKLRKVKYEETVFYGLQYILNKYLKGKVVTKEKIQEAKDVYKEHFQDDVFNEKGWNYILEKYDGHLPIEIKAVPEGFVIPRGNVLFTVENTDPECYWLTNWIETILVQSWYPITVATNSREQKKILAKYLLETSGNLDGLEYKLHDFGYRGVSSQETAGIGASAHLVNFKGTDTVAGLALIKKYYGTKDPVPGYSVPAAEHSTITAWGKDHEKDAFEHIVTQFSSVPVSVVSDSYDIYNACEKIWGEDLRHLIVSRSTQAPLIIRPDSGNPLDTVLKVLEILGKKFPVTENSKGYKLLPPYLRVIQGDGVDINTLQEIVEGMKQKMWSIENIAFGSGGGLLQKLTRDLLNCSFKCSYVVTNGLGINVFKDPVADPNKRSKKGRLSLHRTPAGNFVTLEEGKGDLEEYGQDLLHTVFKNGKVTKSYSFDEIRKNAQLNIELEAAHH

The IC50 is the point on the concentration scale where inhibition reaches its midpoint. As a reminder, the inhibition is the change of the read-out against control, counted positive when it falls. `O=C(NCCCn1ccnc1)c1ccc2nc(-c3ccco3)c(-c3ccco3)nc2c1` [Compound I-107, 2,3-di(2-furyl)-N-[3-(1H-imidazol-1-yl)propyl]quinoxaline-6-carboxamide]: at hNAMPT protein, the 50% inhibitory concentration (IC50) lay within 1000 to 2000 nM. For the same compound, the inhibition at 1 µM is 47% on hNAMPT protein (compound concentration 1 μM) and 102% with PC3 cells.
Regarding `Cn1ccc(CCNC(=O)c2ccc3nc(-c4ccc(F)cc4)c(-c4ccc(F)cc4)nc3c2)n1` [Compound I-108, 2,3-bis(4-fluorophenyl)-N-[2-(1-methyl-1H-pyrazol-3-yl)ethyl]quinoxaline-6-carboxamide], the IC50 at hNAMPT protein was in the range of 1000 to 2000 nM. The results for the inhibition at 1 µM at hNAMPT protein (compound concentration 1 μM) and in the test on PC3 cells were 44% and 93%, respectively.
For the compound `COc1nc2ccc(C(=O)NCCCc3ncc[nH]3)cc2nc1-c1ccc(Cl)cc1` [Compound I-109, 3-(4-chlorophenyl)-N-[3-(1H-imidazol-2-yl)propyl]-2-methoxyquinoxaline-6-carboxamide], the IC50 at hNAMPT protein is below 100 nM. Also, on hNAMPT protein (compound concentration 1 μM), the inhibition at 1 µM came to 97%. Also, the inhibition at 1.667 µM in the test with PC3 cells worked out at 36%.
As to `O=C(NCCCc1ncc[nH]1)c1ccc2nc(OC3CCOCC3)c(-c3ccc(Cl)cc3)nc2c1` [Compound I-111, 3-(4-chlorophenyl)-N-[3-(1H-imidazol-2-yl)propyl]-2-(tetrahydro-2H-pyran-4-yloxy)quinoxaline-6-carboxamide], the IC50 on hNAMPT protein was below 100 nM. The inhibition at 1 µM at hNAMPT protein (compound concentration 1 μM) turned out to be 99%. Besides, the inhibition at 1.667 µM in the test on PC3 cells was 2%.
Turning to `O=C(NCCCn1ccnc1)c1ccc2nc(N3CCC(N4CCNCC4)CC3)c(-c3ccccc3)nc2c1` [Compound I-112, N-[3-(1H-imidazol-1-yl)propyl]-3-phenyl-2-[4-(piperazin-1-yl)piperidin-1-yl]quinoxaline-6-carboxamide], the concentration for half-maximal inhibition (IC50) on hNAMPT protein was below 100 nM. For the same compound, the inhibition at 1 µM is 100% on hNAMPT protein (compound concentration 1 μM) and -1% with PC3 cells.
Turning to `CC1(C)CN(c2nc3cc(C(=O)NCCCn4ccnc4)ccc3nc2-c2ccccc2)CCO1` [Compound I-113, 3-(2,2-dimethylmorpholin-4-yl)-N-[3-(1H-imidazol-1-yl)propyl]-2-phenylquinoxaline-6-carboxamide], the IC50 on hNAMPT protein fell in the range of 500 to 1000 nM. In addition, the inhibition at 1 µM at hNAMPT protein (compound concentration 1 μM) is 64%; in the test on PC3 cells, -8%.
On to `O=C(NCCOc1cccnc1)c1ccc2nc(N3CCC(O)CC3)c(-c3ccc(F)cc3)nc2c1` [Compound I-114, 3-(4-Fluorophenyl)-2-(4-hydroxypiperidin-1-yl)-N-[2-(pyridin-3-yloxy)ethyl]quinoxaline-6-carboxamide], for which, on hNAMPT protein, the concentration for half-maximal inhibition (IC50) is below 100 nM and the inhibition at 1 µM is above 99%. For the same compound, in the test with PC3 cells, the inhibition at 1.667 µM stood at 2%.
Regarding `C[C@@H]1CN(c2nc3ccc(C(=O)NCCCn4ccnc4)cc3nc2-c2ccccc2)C[C@H](C)O1` [Compound I-115, cis-2-[(2R,6S)-2,6-dimethylmorpholin-4-yl]-N-[3-(1H-imidazol-1-yl)propyl]-3-phenylquinoxaline-6-carboxamide], the IC50 at hNAMPT protein is below 100 nM. Further, the inhibition at 1 µM at hNAMPT protein (compound concentration 1 μM) is 100%; with PC3 cells it was -8%.
With `O=C(NCCCc1ncc[nH]1)c1ccc2nc(N3CCCC3)c(-c3ccc(Cl)cc3)nc2c1` [Compound I-116, 3-(4-chlorophenyl)-N-[3-(1H-imidazol-2-yl)propyl]-2-(pyrrolidin-1-yl)quinoxaline-6-carboxamide], the IC50 on hNAMPT protein is below 100 nM. Besides, the inhibition at 1 µM at hNAMPT protein (compound concentration 1 μM) was found to be 98%. The inhibition at 1.667 µM with PC3 cells was found to be 2%.
With `O=C(NCCc1cccnc1)c1ccc2nc(-c3ccco3)c(-c3ccco3)nc2c1` [Compound I-117, 2,3-di(2-furyl)-N-[2-(pyridin-3-yl)ethyl]quinoxaline-6-carboxamide], the IC50 on hNAMPT protein lay within 2000 to 10000 nM. The inhibition at 1 µM at hNAMPT protein (compound concentration 1 μM) came to 22%; in the test on PC3 cells it was 97%.
Take `O=C(NCCc1c[nH]cn1)c1ccc2nc(-c3ccccc3)c(-c3ccccc3)nc2c1` [Compound I-118, N-[2-(1H-imidazol-4-yl)ethyl]-2,3-diphenylquinoxaline-6-carboxamide]: at hNAMPT protein, the half-inhibitory concentration (IC50) is 2000 to 10000 nM. Further, the inhibition at 1 µM on hNAMPT protein (compound concentration 1 μM) was 29%; in the test on PC3 cells, 85%.
